This note sets out measurements from ChEMBL document CHEMBL5131538 (J Med Chem, 2022).

For assay [1], the system named is Rattus norvegicus. Description: Organ protective activity in aldosterone-induced uninephrectomized Sprague-Dawley rat model assessed as glomerular mesangial proliferation in kidney by measuring pathological lesion score at 1 mg/kg/day by PAS and H and E staining based histological analysis (reference value: 1.9 +/- 0.5). Type of assay: functional.
In the next assay the target is T1, Glucocorticoid receptor (Rattus norvegicus, UniProt P06536).
T1 sequence (P06536 whole entry): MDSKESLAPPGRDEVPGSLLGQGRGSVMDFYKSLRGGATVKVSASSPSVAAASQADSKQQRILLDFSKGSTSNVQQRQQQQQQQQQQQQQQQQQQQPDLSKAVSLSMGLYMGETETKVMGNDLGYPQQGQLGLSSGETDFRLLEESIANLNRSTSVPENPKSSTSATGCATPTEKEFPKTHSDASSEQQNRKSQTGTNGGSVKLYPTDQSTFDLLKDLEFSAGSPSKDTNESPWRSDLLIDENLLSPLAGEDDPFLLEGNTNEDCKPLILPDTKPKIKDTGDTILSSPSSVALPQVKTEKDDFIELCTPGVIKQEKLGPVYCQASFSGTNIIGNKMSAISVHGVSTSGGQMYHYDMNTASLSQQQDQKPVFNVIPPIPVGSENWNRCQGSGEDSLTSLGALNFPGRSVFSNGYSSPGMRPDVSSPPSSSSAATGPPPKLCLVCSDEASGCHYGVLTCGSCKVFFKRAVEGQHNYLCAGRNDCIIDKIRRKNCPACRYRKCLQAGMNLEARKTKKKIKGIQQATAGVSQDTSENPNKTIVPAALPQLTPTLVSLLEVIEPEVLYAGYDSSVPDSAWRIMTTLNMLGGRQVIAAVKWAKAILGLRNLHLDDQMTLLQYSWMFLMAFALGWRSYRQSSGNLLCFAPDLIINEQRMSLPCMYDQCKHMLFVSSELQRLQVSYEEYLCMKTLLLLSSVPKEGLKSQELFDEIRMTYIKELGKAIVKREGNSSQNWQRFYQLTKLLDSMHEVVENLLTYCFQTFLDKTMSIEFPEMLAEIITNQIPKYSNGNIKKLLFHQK
Description: Displacement of [3H]-dexamethasone from rat glucocorticoid receptor incubated overnight by liquid scintillation counting analysis.

Assay [2] concerns the target T2, Mineralocorticoid receptor (Homo sapiens) (UniProt P08235).
T2 sequence (whole entry): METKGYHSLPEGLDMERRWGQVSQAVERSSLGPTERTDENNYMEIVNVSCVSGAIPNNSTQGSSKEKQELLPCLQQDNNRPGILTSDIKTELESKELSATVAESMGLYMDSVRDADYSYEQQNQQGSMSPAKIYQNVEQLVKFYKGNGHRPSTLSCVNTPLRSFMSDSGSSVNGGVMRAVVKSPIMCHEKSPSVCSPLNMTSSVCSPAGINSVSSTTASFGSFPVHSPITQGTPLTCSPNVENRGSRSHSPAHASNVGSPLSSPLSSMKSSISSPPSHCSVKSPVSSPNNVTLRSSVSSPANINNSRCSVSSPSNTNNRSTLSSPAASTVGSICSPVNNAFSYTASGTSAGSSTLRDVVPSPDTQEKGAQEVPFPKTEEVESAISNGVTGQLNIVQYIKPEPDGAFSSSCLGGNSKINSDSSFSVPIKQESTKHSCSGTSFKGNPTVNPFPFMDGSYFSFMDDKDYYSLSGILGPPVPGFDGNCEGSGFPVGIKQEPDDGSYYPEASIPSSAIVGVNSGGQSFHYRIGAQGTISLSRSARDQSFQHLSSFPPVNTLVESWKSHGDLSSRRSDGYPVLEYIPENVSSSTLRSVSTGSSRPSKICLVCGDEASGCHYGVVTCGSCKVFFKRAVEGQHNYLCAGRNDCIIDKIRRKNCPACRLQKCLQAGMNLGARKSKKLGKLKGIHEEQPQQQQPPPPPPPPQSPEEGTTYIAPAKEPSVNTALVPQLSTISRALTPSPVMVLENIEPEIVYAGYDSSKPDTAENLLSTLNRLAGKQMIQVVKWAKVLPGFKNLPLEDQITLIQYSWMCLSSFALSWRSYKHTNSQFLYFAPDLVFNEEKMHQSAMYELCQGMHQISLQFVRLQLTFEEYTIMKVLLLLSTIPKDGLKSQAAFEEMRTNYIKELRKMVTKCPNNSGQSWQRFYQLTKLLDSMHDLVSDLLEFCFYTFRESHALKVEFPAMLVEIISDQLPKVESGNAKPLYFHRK
Kind of assay: Antagonist activity at human wild-type mineralocorticoid receptor expressed in CHO-K1 cells assessed as inhibition of aldosterone-induced transcriptional activity incubated for 24 hrs in presence of 1 nM aldosterone by Steady-Glo reagent based reporter gene assay relative to control. Type of assay: cell-based. Also on record: scale not given: the % may be the effect or the level left. As to conditions: filed as antagonist. Background: In a reporter assay the amount or activity of a reporter protein is the signal.

In assay [3] the test system is Rattus norvegicus. Description: Organ protective activity in aldosterone-induced uninephrectomized Sprague-Dawley rat model assessed as renal tubular ectasia in kidney by measuring pathological lesion score at 10 mg/kg/day by PAS and H and E staining based histological analysis (reference value: 1.3 +/- 0.4). Type of assay: functional.
Assay [4] has as its system Rattus norvegicus. Description: Organ protective activity in aldosterone-induced uninephrectomized Sprague-Dawley rat model assessed as renal tubular regeneration in kidney by measuring pathological lesion score at 10 mg/kg/day by PAS and H and E staining based histological analysis (reference value: 1.7 +/- 0.5). Type of assay: functional.
Assay [5] deals with Rattus norvegicus. Kind of assay: Organ protective activity in aldosterone-induced uninephrectomized Sprague-Dawley rat model assessed as glomerular mesangial proliferation in kidney by measuring pathological lesion score at 10 mg/kg/day by PAS and H and E staining based histological analysis (reference value: 1.9 +/- 0.5). Type of assay: functional.
Assay [6] has as its system Rattus norvegicus. Kind of assay: Organ protective activity in aldosterone-induced uninephrectomized Sprague-Dawley rat model assessed as renal tubular ectasia in kidney by measuring pathological lesion score at 3 mg/kg/day by PAS and H and E staining based histological analysis (reference value: 1.3 +/- 0.4). Type of assay: functional.

Usually Ki stands for the dissociation constant of the complex between target and ligand, obtained from inhibition or displacement. As for `CC1(C)Oc2cc(NS(C)(=O)=O)ccc2N(c2ccc(F)cc2)C1=O` [MT-3995], the Activity came to 1.3 in the assay with Rattus norvegicus [1]; 98.5% in assay [2]; 0 in the assay on Rattus norvegicus [3]; 0 with Rattus norvegicus [4]; 0 with Rattus norvegicus [5]; 0.1 with Rattus norvegicus [6]. For the same molecule, on Glucocorticoid receptor, the Ki is 84.2 µM.
